Here are results for 8 compounds from ChEMBL document CHEMBL3045299, “Chromano-analogs of Insecticidal Neolignans of the 1,4-Benzodioxane Type” (1993).

The structures appear in SMILES notation.

In this test the test system is Musca domestica. Kind of test: Insecticidal activity against Musca domestica (house fly) assessed as mortality per fly pretreated with piperonyl butoxide measured after 24 hr. In kind it is functional.
As to `COC[C@H]1Oc2cc([C@H]3OC[C@]4(O)[C@@H](Oc5ccc6c(c5)OCO6)OC[C@H]34)c(OC)cc2O[C@@H]1c1ccc2c(c1)OCO2` [(+)-HAEDOXAN E], the LD50 came to 0.05 µg.

For the compound `COC[C@H]1Oc2cc([C@H]3OC[C@]4(O)[C@@H](Oc5c(OC)cc6c(c5OC)OCO6)OC[C@H]34)c(OC)cc2O[C@@H]1c1ccc2c(c1)OCO2` (racemic) [(+)-HAEDOXAN A], the LD50 was 0.00025 µg.

As to `COCC1Oc2cc([C@H]3OC[C@]4(O)[C@@H](Oc5ccc6c(c5)OCO6)OC[C@H]34)c(OC)cc2OC1c1ccc2c(c1)OCO2` (mixture of isomers), the LD50 turned out to be 0.18 µg.

Turning to `COC[C@H]1Oc2cc([C@H]3OC[C@]4(O)[C@@H](Oc5ccc6c(c5)OCO6)OC[C@H]34)c(OC)cc2O[C@@H]1c1ccc2c(c1)OCO2` (racemic) [(+)-HAEDOXAN E], the LD50 worked out at 0.1 µg.

Take `COCC1Cc2cc([C@H]3OC[C@]4(O)[C@@H](Oc5c(OC)cccc5OC)OC[C@H]34)c(OC)cc2OC1c1ccc2c(c1)OCO2` (mixture of isomers): the LD50 came to 1 µg.

As for `COCC1Cc2cc([C@@H]3OC[C@]4(O)[C@@H](Oc5c(OC)cccc5OC)OC[C@H]34)c(OC)cc2OC1c1ccc2c(c1)OCO2` (mixture of isomers), the LD50 is above 10 µg.

For the compound `COCC1Oc2cc([C@H]3OC[C@]4(O)[C@@H](Oc5c(OC)cccc5OC)OC[C@H]34)c(OC)cc2CC1c1ccc2c(c1)OCO2` (mixture of isomers), the LD50 came out at 0.005 µg.

As for `COC[C@@H]1Oc2cc([C@H]3OC[C@]4(O)[C@@H](Oc5ccc6c(c5)OCO6)OC[C@H]34)c(OC)cc2O[C@H]1c1ccc2c(c1)OCO2` (racemic), the LD50 is above 5 µg.
